Measured values: patent US10208033B2, “β-carboline, dihydro-β-carboline and tetrahydro-β-carboline alkaloid derivatives and preparation methods same and use in aspects of preventing and treating plant viruses, fungicides and insecticides” (NANKAI UNIVERSITY, priority 2013, dated 2019)
Structures can show the parent of a compound that is named as a salt. Where two headings read alike, the source gives them in different places.

Experiments:
[1] = system: tobacco mosaic virus (TMV); experiment: Anti-TMV in vitro effect (half-leaf soaking); format: cell-based, tobacco mosaic virus (host Nicotiana tabacum L.cv.Xanthi NN)
[2] = system: Rhizoctonia cereali; experiment: Fungicidal (bactericidal) activity in vitro, PDA colony diameter; format: cell-based; conditions: 50 mg/kg
[3] = system: Fusarium graminearumt; experiment: microbe, parasite or virus in culture; format: cell-based; conditions: 50 mg/kg
[4] = system: Sclerotinia scleotiorum; experiment: Fungicidal (bactericidal) activity in vitro, PDA colony diameter; format: cell-based; conditions: 50 mg/kg
[5] = system: tobacco mosaic virus (TMV); experiment: Anti-TMV in vivo protective effect; parameters: species or system tobacco mosaic virus (host Nicotiana tabacum L.cv.Xanthi NN)
[6] = system: Alternaria solani; experiment: Fungicidal (bactericidal) activity in vitro, PDA colony diameter; format: cell-based; conditions: 50 mg/kg
[7] = system: Fusarium fujikuroi; experiment: as above; format: cell-based; conditions: 50 mg/kg
[8] = system: Rhizoctonia solani; experiment: as above; format: cell-based; conditions: 50 mg/kg
[9] = system: mosquito larvae; experiment: whole plant or invertebrate
Procedure, shortened: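 Compound dissolved in acetone (or other solvent) to a 1000 ppm stock and diluted in water to 5 ppm. Ten Culex pipiens pallens larvae at the start of the fourth instar, laboratory-reared, added per beaker; solvent-only aqueous control.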

[10] = system: Botrytis cinerea; experiment: Fungicidal (bactericidal) activity in vitro, PDA colony diameter; format: cell-based; conditions: 50 mg/kg
[11] = system: Cercospora arachidicola; experiment: as above; format: cell-based; conditions: 50 mg/kg
[12] = system: potato late blight; experiment: microbe, parasite or virus in culture; format: cell-based
[13] = system: armyworms; format: in vivo; conditions: concentration 600 mg/kg
[14] = system: cotton bollworms; experiment: whole plant or invertebrate
Procedure: Experimental method of cotton bollworms: feed and drug mixing method: measure 3 mL of prepared solution and add it to about 27 g of newly prepared feed, thereby obtaining needed concentration through dilution by 10 times.

[15] = system: Bipolaria maydis; experiment: organism not typed; format: cell-based; conditions: 50 mg/kg
[16] = system: corn borers
[17] = system: cucumber fusarium wilt; experiment: Fungicidal (bactericidal) activity in vitro, PDA colony diameter; format: cell-based; conditions: 50 mg/kg
[18] = system: tobacco mosaic virus (TMV); experiment: Anti-TMV in vivo therapeutic effect; parameters: species or system tobacco mosaic virus (host Nicotiana tabacum L.cv.Xanthi NN)
[19] = system: Colletotrichum orbiculare; experiment: Fungicidal (bactericidal) activity in vitro, PDA colony diameter; format: cell-based; conditions: 50 mg/kg
[20] = system: Phytophthora capsici; experiment: as above; format: cell-based; conditions: 50 mg/kg
[21] = system: tobacco mosaic virus (TMV); experiment: Anti-TMV in vivo inactivation; parameters: species or system tobacco mosaic virus (host Nicotiana tabacum L.cv.Xanthi NN)
[22] = system: Macrophoma kawatsukai; experiment: Fungicidal (bactericidal) activity in vitro, PDA colony diameter; format: cell-based; conditions: 50 mg/kg

| SMILES | Relative inhibition rate (%) In vitro activity ([1]; treatment dose 100 μg/mL) [%] | Relative inhibition rate (%) In vitro activity ([1]; treatment dose 500 μg/mL) [%] | Bactericidal activity (%) Rhizoctonia cereali [2] [%] | Bactericidal activity (%) Fusarium graminearumt [3] [%] | Bactericidal activity (%) Sclerotinia scleotiorum [4] [%] | Relative inhibition rate (%) In vivo protection ([5]; treatment dose 100 μg/mL) [%] | Relative inhibition rate (%) In vivo protection ([5]; treatment dose 500 μg/mL) [%] | Bactericidal activity (%) Alternaria solani [6] [%] | Bactericidal activity (%) Fusarium fujikuroi [7] [%] | Bactericidal activity (%) Rhizoctonia solani [8] [%] | Bactericidal activity (%) Botrytis cinerea [10] [%] | Bactericidal activity (%) Cercospora arachidicola [11] [%] | Bactericidal activity (%) potato late blight [12] [%] | Armyworm Mortality (%) [13] [%] | Bactericidal activity (%) Bipolaria maydis [15] [%] | Bactericidal activity (%) Cucumber fusarium wilt [17] [%] | Relative inhibition rate (%) In vivo therapy ([18]; treatment dose 100 μg/mL) [%] | Relative inhibition rate (%) In vivo therapy ([18]; treatment dose 500 μg/mL) [%] | Bactericidal activity (%) Colletotrichum orbiculare [19] [%] | Bactericidal activity (%) Phytophthora capsici [20] [%] | other results |
| --- | --- | --- | --- | --- | --- | --- | --- | --- | --- | --- | --- | --- | --- | --- | --- | --- | --- | --- | --- | --- | --- |
| CCCCCC(=O)NNC(=O)[C@@H]1Cc2c([nH]c3ccccc23)[C@H](C)N1 [Id-5, (1S, 3S)—N′—N-Hexanoyl-1-methyl-2,3,4,9-tetrahydropyridino [3,4-b] indol-3-formylhydrazine] | 0 | 32.1 | 29.7 | 46.2 | 26.9 | 0 | 30.9 | 23.8 | 29.4 | 1.4 | 66.7 | 45.5 | 26.1 | 5 | 32.0 | 22.7 | 0 | 27.3 | 28.0 | 21.2 | Mosquito larvae Mortality (%) ([9]; concentration 10 mg/kg, 24 h): 10%; Cotton bollworm Mortality (%) ([14]; concentration 600 mg/kg): 30%; Corn borer Mortality (%) ([16]; concentration 600 mg/kg): 25%; Relative inhibition rate (%) In vivo inactivation ([21]; treatment dose 100 μg/mL): 0%; Relative inhibition rate (%) In vivo inactivation ([21]; treatment dose 500 μg/mL): 31.5%; Bactericidal activity (%) Macrophoma kawatsukai [22]: 63.6% |
| O=C(O)/C=C/c1cc2c([nH]c3ccccc32)c(-c2cccnc2)n1 [Ia-16, (E)-3-(1-(pyridine-3)-pyridino [3,4-b]indol-3)-acrylic acid] | 0 | 17.8 | 53.1 | 42.9 | 76.0 | 0 | 21.3 | 22.2 | 28.6 | 0.0 | 4.6 | 0.0 | 15.0 | 10 | 15.8 | 4.8 | 0 | 20.2 | 23.8 | 9.1 | Mosquito larvae Mortality (%) ([9]; in vivo): 20%; Cotton bollworm Mortality (%) ([14]; in vivo): 5%; Corn borer Mortality (%) ([16]; in vivo): 10%; Relative inhibition rate (%) In vivo inactivation ([21]; treatment dose 100 μg/mL): 0%; Relative inhibition rate (%) In vivo inactivation ([21]; treatment dose 500 μg/mL): 26.5%; Bactericidal activity (%) Macrophoma kawatsukai [22]: 23.5% |
| CCCC=NNC(=O)[C@@H]1Cc2c([nH]c3ccccc23)[C@H](C)N1 [Ic-23, (1S, 3S)—N′-butylidene-1-methyl-2,3,4,9-tetrahydropyridino [3,4-b] indol-3-formylhydrazine] | 7.8 | 32.6 | 43.1 | 6.9 | 64.7 | 11.3 | 40.5 | 45.0 | 0.0 | 6.6 | 9.1 | 17.6 | 20.0 | 15 | 12.0 | 19.2 | 10.4 | 41.3 | 14.8 | 5.3 | Mosquito larvae Mortality (%) ([9]; concentration 10 mg/kg, 24 h): 35%; Cotton bollworm Mortality (%) ([14]; concentration 600 mg/kg): 10%; Corn borer Mortality (%) ([16]; concentration 600 mg/kg): 10%; Relative inhibition rate (%) In vivo inactivation ([21]; treatment dose 100 μg/mL): 13.4%; Relative inhibition rate (%) In vivo inactivation ([21]; treatment dose 500 μg/mL): 47.1%; Bactericidal activity (%) Macrophoma kawatsukai [22]: 69.4% |
| Cc1nc(/C=C/C(=O)O)cc2c1[nH]c1ccccc12 [Ia-14, (E)-3-(1-methyl-pyridino [3,4-b]indol-3)-acrylic acid] | 0 | 25.8 | 63.2 | 14.3 | 9.8 | 0 | 28.4 | 10.5 | 28.6 | 39.5 | 12.1 | 84.6 | 22.7 | 25 | 22.7 | 23.1 | 0 | 21.5 | 25.0 | 18.8 | Mosquito larvae Mortality (%) ([9]; concentration 10 mg/kg, 24 h): 35%; Cotton bollworm Mortality (%) ([14]; concentration 600 mg/kg): 30%; Corn borer Mortality (%) ([16]; concentration 600 mg/kg): 20%; Relative inhibition rate (%) In vivo inactivation ([21]; treatment dose 100 μg/mL): 0%; Relative inhibition rate (%) In vivo inactivation ([21]; treatment dose 500 μg/mL): 18.4%; Bactericidal activity (%) Macrophoma kawatsukai [22]: 47.6% |
| CCOC(=O)[C@@H]1Cc2c([nH]c3ccccc23)CN1 [Ib-7, (S)-2,3,4,9-tetrahydropyridino [3,4-b] indol-3-ethyl formate] | 12.3 | 26.9 | 78.1 | 42.9 | 60.0 | 16.2 | 40.1 | 50.0 | 64.3 | 42.9 | 50.0 | 42.9 | 40.0 | 5 | 42.1 | 33.3 | 15.9 | 30.7 | 47.6 | 66.7 | Mosquito larvae Mortality (%) ([9]; concentration 10 mg/kg, 24 h): 15%; Cotton bollworm Mortality (%) ([14]; concentration 600 mg/kg): 20%; Corn borer Mortality (%) ([16]; concentration 600 mg/kg): 5%; Relative inhibition rate (%) In vivo inactivation ([21]; treatment dose 100 μg/mL): 19.3%; Relative inhibition rate (%) In vivo inactivation ([21]; treatment dose 500 μg/mL): 36.5%; Bactericidal activity (%) Macrophoma kawatsukai [22]: 64.7% |
| CC(=NNC(=O)[C@@H]1Cc2c([nH]c3ccccc23)[C@H](C)N1)c1ccccc1 [Ic-27, (1S, 3S)—N′-(1-phenylethylidene)-1-methyl-2,3,4,9-tetrahydropyridino [3,4-b] indol-3-formylhydrazine] | 9.2 | 30.2 | 51.4 | 61.5 | 11.5 | 7.9 | 37.2 | 33.3 | 29.4 | 15.3 | 69.4 | 36.4 | 26.1 | 20 | 36.0 | 0.0 | 11.1 | 34.8 | 52.0 | 36.4 | Mosquito larvae Mortality (%) ([9]; concentration 10 mg/kg, 24 h): 40%; Cotton bollworm Mortality (%) ([14]; concentration 600 mg/kg): 30%; Corn borer Mortality (%) ([16]; concentration 600 mg/kg): 30%; Relative inhibition rate (%) In vivo inactivation ([21]; treatment dose 100 μg/mL): 13.6%; Relative inhibition rate (%) In vivo inactivation ([21]; treatment dose 500 μg/mL): 39.5%; Bactericidal activity (%) Macrophoma kawatsukai [22]: 39.4% |
